Read-outs that look alike come from different tables or passages of the source.
Test system: zebrafish embryos
Format: in vivo
Details: for Mild % / Mild dorsalization, number of embryos / Moderate % / Moderate dorsalization, number of embryos / Normal % / Normal, number of embryos / Severe % / Severe dorsalization, number of embryos / % Mild / % Moderate-Severe / Mild, number of embryos / Moderate-Severe, number of embryos / Total % Dorsalized: scored at 48 hpf
[1] = 10 μM, continuous exposure from 2 hpf
[2] = 10 μM, continuous exposure from 4 hpf
[3] = 10 μM, continuous exposure from 6 hpf
[4] = 10 μM, continuous exposure from 8 hpf
[5] = 10 μM, continuous exposure from 10 hpf
[6] = 10 μM, interval exposure 2-4 hpf
[7] = 10 μM, interval exposure 2-6 hpf
[8] = 10 μM, interval exposure 2-8 hpf
[9] = 10 μM, interval exposure 4-8 hpf
[10] = 10 μM, interval exposure 6-8 hpf
[11] = dorsomorphin 10 μM, treatment at 3 hpf

With `c1cc(-c2cnn3cc(-c4ccc(OCCN5CCCCC5)cc4)cnc23)ccn1` [Compound C/Dorsomorphin] the toxicity (10 μM) was “No toxicity was observed”, the Mild % [1] was 0% and the “Mild dorsalization, number of embryos” value [1] was 0. For the same molecule, the Moderate % [1] was 0%, the “Moderate dorsalization, number of embryos” value (“Moderate dorsalization” below) [1] was 0 and the Normal % [1] was 0%. For the same molecule, the “Normal, number of embryos” value [1] was 0, the Severe % [1] was 100% and the “Severe dorsalization, number of embryos” value [1] was 20. The Mild % [2] was 0%, the “Mild dorsalization, number of embryos” value [2] was 0 and the Moderate % [2] was 100%. The “Moderate dorsalization” value [2] was 19, the Normal % [2] was 0% and the “Normal, number of embryos” value [2] was 0. The Severe % [2] was 0%, the “Severe dorsalization, number of embryos” value [2] was 0 and the Mild % [3] was 22%. For the same molecule, the “Mild dorsalization, number of embryos” value [3] was 4, the Moderate % [3] was 78% and the “Moderate dorsalization” value [3] was 14. The Normal % [3] was 0%, the “Normal, number of embryos” value [3] was 0 and the Severe % [3] was 0%. The “Severe dorsalization, number of embryos” value [3] was 0, the Mild % [4] was 85% and the “Mild dorsalization, number of embryos” value [4] was 17. For the same molecule, the “Moderate dorsalization” value [4] was 0, the “Normal, number of embryos” value [4] was 3 and the Severe % [4] was 0%. For the same molecule, the “Severe dorsalization, number of embryos” value [4] was 0, the Mild % [5] was 0% and the “Mild dorsalization, number of embryos” value [5] was 0. The Moderate % [5] was 0%, the “Moderate dorsalization” value [5] was 0 and the Normal % [5] was 100%. The “Normal, number of embryos” value [5] was 20, the Severe % [5] was 0% and the “Severe dorsalization, number of embryos” value [5] was 0. For the same molecule, the dorsalization phenotype (10 μM, continuous from 2 hpf) was “severe dorsalization with high penetrance”, the dorsalization phenotype (10 μM, exposure from 4-8 and 6-8 hpf) was “mild to moderate dorsalization” and the Mild % [6] was 10%. The “Mild dorsalization, number of embryos” value [6] was 2, the Moderate % [6] was 90% and the “Moderate dorsalization” value [6] was 18. For the same molecule, the Normal % [6] was 0%, the “Normal, number of embryos” value [6] was 0 and the “Severe dorsalization, number of embryos” value [6] was 0. For the same molecule, the Mild % [7] was 17%, the “Mild dorsalization, number of embryos” value [7] was 3 and the Moderate % [7] was 44%. For the same molecule, the “Moderate dorsalization” value [7] was 8, the Normal % [7] was 0% and the “Normal, number of embryos” value [7] was 0. The Severe % [7] was 39%, the “Severe dorsalization, number of embryos” value [7] was 7 and the Mild % [8] was 0%. The “Mild dorsalization, number of embryos” value [8] was 0, the Moderate % [8] was 0% and the “Moderate dorsalization” value [8] was 0. The Normal % [8] was 0%, the “Normal, number of embryos” value [8] was 0 and the Severe % [8] was 100%. For the same molecule, the “Severe dorsalization, number of embryos” value [8] was 20, the Mild % [9] was 65% and the “Mild dorsalization, number of embryos” value [9] was 15. The Moderate % [9] was 35%, the Normal % [9] was 0% and the “Normal, number of embryos” value [9] was 0. For the same molecule, the Severe % [9] was 0%, the “Severe dorsalization, number of embryos” value [9] was 0 and the Mild % [10] was 95%. For the same molecule, the “Mild dorsalization, number of embryos” value [10] was 19, the Moderate % [10] was 5% and the “Moderate dorsalization” value [10] was 1. For the same molecule, the Normal % [10] was 0%, the “Normal, number of embryos” value [10] was 0 and the Severe % [10] was 0%. The “Severe dorsalization, number of embryos” value [10] was 0, the dorsalization phenotype (10 μM, treated at 2-4 hpf) was “severe dorsalization defects” and the dorsalization phenotype (10 μM, treated at 6-8 hpf) was “mild dorsalization”. For the same molecule, the dorsalization phenotype (10 μM, treatment at 10 hpf and beyond) was “did not induce dorsalization”, the nonspecific toxicity (5-20 uM) was “absence of other nonspecific toxicity” and the dorsalization phenotype (5 to 10 μM from 3 hpf) was “progressively more severe dorsalization in a progressively higher percentage of embryos”. The dorsalization phenotype (10 (unit not given) from 3 hpf) was “moderate or severe dorsalization in nearly all embryos examined”, the “% Mild” value (DM 0.2 μM from 3 hpf) was 0% and the “% Moderate-Severe” value (DM 0.2 μM from 3 hpf) was 0%. For the same molecule, the “Mild, number of embryos” value (DM 0.2 μM from 3 hpf) was 0, the “Moderate-Severe, number of embryos” value (DM 0.2 μM from 3 hpf) was 0 and the “Normal, number of embryos” value (DM 0.2 μM from 3 hpf) was 60. For the same molecule, the “Total % Dorsalized” value (DM 0.2 μM from 3 hpf) was 0%, the “% Mild” value (DM 0.5 μM from 3 hpf) was 0% and the “% Moderate-Severe” value (DM 0.5 μM from 3 hpf) was 0%. The “Mild, number of embryos” value (DM 0.5 μM from 3 hpf) was 0, the “Moderate-Severe, number of embryos” value (DM 0.5 μM from 3 hpf) was 0 and the “Normal, number of embryos” value (DM 0.5 μM from 3 hpf) was 59. For the same molecule, the “Total % Dorsalized” value (DM 0.5 μM from 3 hpf) was 0%, the “% Mild” value (DM 1 μM from 3 hpf) was 0% and the “% Moderate-Severe” value (DM 1 μM from 3 hpf) was 0%. For the same molecule, the “Mild, number of embryos” value (DM 1 μM from 3 hpf) was 0, the “Moderate-Severe, number of embryos” value (DM 1 μM from 3 hpf) was 0 and the “Normal, number of embryos” value (DM 1 μM from 3 hpf) was 60. For the same molecule, the “Total % Dorsalized” value (DM 1 μM from 3 hpf) was 0%, the “% Mild” value (DM 2 μM from 3 hpf) was 0% and the “% Moderate-Severe” value (DM 2 μM from 3 hpf) was 0%. The “Mild, number of embryos” value (DM 2 μM from 3 hpf) was 0, the “Normal, number of embryos” value (DM 2 μM from 3 hpf) was 60 and the “Total % Dorsalized” value (DM 2 μM from 3 hpf) was 0%. The “% Mild” value (DM 5 μM from 3 hpf) was 19%, the “% Moderate-Severe” value (DM 5 μM from 3 hpf) was 0% and the “Mild, number of embryos” value (DM 5 μM from 3 hpf) was 11. The “Moderate-Severe, number of embryos” value (DM 5 μM from 3 hpf) was 0, the “Normal, number of embryos” value (DM 5 μM from 3 hpf) was 48 and the “Total % Dorsalized” value (DM 5 μM from 3 hpf) was 19%. The “% Mild” value (DM 7.5 μM from 3 hpf) was 58%, the “% Moderate-Severe” value (DM 7.5 μM from 3 hpf) was 42% and the “Mild, number of embryos” value (DM 7.5 μM from 3 hpf) was 35. For the same molecule, the “Moderate-Severe, number of embryos” value (DM 7.5 μM from 3 hpf) was 25, the “Normal, number of embryos” value (DM 7.5 μM from 3 hpf) was 0 and the “Total % Dorsalized” value (DM 7.5 μM from 3 hpf) was 100%. For the same molecule, the “% Mild” value (DM 10 μM from 3 hpf) was 3%, the “% Moderate-Severe” value (DM 10 μM from 3 hpf) was 98% and the “Mild, number of embryos” value (DM 10 μM from 3 hpf) was 1. For the same molecule, the “Moderate-Severe, number of embryos” value (DM 10 μM from 3 hpf) was 39, the “Normal, number of embryos” value (DM 10 μM from 3 hpf) was 0 and the “Total % Dorsalized” value (DM 10 μM from 3 hpf) was 100%. The “% Dorsalized” value [11] was 100%, the “Dorsalized, number of embryos” value [11] was 26 and the “Early lethality, number of embryos” value [11] was 3. The Total survivors [11] was 26, the dorsalization and toxicity (same conditions as C75 (3 hpf)) was “induced dorsalization with high penetrance and minimal toxicity” and the dorsalization phenotype (≦2 μM from 3 hpf) was “did not elicit dorsalization”. For the same molecule, the “cyclopia (phenotype of defective TGF-β signaling)” value (≧5 μM at ≦8 hpf) was “did not result in cyclopia”.

Reference: US20100093760A1, “METHODS FOR IDENTIFYING COMPOUNDS THAT MODULATE CELL SIGNALING AND METHODS EMPLOYING SUCH COMPOUNDS” (The General Hospital Corporation, priority 2006, published 2010)
